The term pEC50 denotes the EC50 on a negative log10 scale, so that one unit is a factor of ten. A word on the solubility: it is the dissolved amount per volume that the medium holds.

This is an account of results in patent US8722849B2, “Polypeptides” (Novo Nordisk A/S, priority 2011, dated 2014).

One data set deals with food intake. Put plainly: Assay (I) efficacy testing on appetite (food intake), ad libitum fed rat model. The class given is in vivo, Sprague Dawley (SD) rats. An excerpt: In the following examples reference is made to the following Assays: • Assay (I)— Experimental protocol for efficacy testing on appetite using an ad libitum fed rat model • ASSAY (II)a—Functional assay—Human calcitonin and amylin receptor assay • ASSAY (II)b—Functional assay—Rat calcitonin and rat amylin receptor assays • ASSAY (III)—ThT fibrillation assays for the assessment of physical stability of protein formulations • ASSAY (IV)—Determination of solubility • ASSAY (V)—Determination of binding to the human amylin receptor • ASSAY (VI)—Determination of the binding to the rat amylin receptor • ASSAY (VII)—Determination of binding to the human calcitonin receptor • ASSAY (VIII)—Determination of binding to the rat calcitonin receptor • ASSAY (IX)—pK—Determination of T % in mini-pig • ASSAY (X)—pK—Determination of T % in rat ASSAY (I)—Experimental Protocol for Efficacy Testing on Appetite Using an Ad Libitum Fed Rat Model
Sprague Dawley (SD) rats from Taconic Europe, Denmark are used for the experiments. The rats have a body weight 200-250 g at the start of experiment. The rats arrive at least 10-14 days before start of experiment to allow acclimatization to experimental settings. During this period the animals are handled at least 2 times. After arrival rats are housed individually for one week in a reversed light/dark phase (meaning that lights are off during daytime and on during nighttime) […]. Since rats are normally active and eat their major part of their daily food intake during the dark period, rats are dosed in the morning right before lights are turned off. This set-up results in the lowest data variation and highest test sensitivity. The experiment is conducted in the rats' home cages and rats have free access to food and water throughout the acclimatization period and the experiment period. Each dose of derivative is tested in a group of 5-8 rats. A vehicle group of 6-8 rats is included in each set of testing. Rats are dosed once according to body weight with a 0.01-3 mg/kg solution administered intraperitoneally (ip), orally (po) or subcutaneously (sc). The time of dosing is recorded for each group. After dosing, the rats are returned to their home cages, where they then have access to food and water. The food consumption is recorded individually continuously by on-line registration or manually every hour for 7 hours, and then after 24 h and sometimes 48 h. At the end of the experimental session, the animals are euthanised.
The individual data are recorded in Microsoft excel sheets. Outliers are excluded after applying the Grubbs statistical evaluation test for outliers, and the result is presented graphically using the GraphPad Prism program.

Data set [1] in a line: Assay (III) ThT fibrillation assay for physical stability. Format: physicochemical. The method in brief:
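Freshly prepared formulations, pH-adjusted, with 1 μM ThT; four or eight replicates incubated at 37 °C under 960 rpm orbital shaking. Fluorescence (ex 444/em 485 nm) read every 20 min; […]. Peptide concentration measured by RP-HPLC before and after the run.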

For data set [2], the target named is T1, human amylin receptor (amylin 3(a) receptor: human calcitonin receptor + RAMP-3) (Homo sapiens, UniProt O60896+P30988).
T1 construct: expressed in transfected cells; host or cells: BHK570
T1 sequence (P30988 25-474): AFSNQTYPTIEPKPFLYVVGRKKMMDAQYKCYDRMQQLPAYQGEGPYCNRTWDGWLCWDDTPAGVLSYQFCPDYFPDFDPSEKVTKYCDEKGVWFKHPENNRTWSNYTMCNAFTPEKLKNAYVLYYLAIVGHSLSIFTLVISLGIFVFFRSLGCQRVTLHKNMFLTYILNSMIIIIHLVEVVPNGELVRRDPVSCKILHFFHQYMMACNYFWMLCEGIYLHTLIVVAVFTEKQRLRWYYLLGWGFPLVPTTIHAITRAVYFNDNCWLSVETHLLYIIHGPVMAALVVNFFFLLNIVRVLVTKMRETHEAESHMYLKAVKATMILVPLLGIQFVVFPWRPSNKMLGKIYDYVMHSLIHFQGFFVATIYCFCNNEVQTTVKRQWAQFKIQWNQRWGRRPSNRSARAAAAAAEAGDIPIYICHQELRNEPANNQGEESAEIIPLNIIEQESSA
T1 sequence (O60896 24-148 partner): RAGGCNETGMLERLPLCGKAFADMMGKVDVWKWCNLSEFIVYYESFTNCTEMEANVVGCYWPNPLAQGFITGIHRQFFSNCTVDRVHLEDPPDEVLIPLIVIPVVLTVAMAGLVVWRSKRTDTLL
The data set can be described thus: Assay (II)a functional CRE-luciferase assay, human amylin receptor. The note with it: Table 2; BHK amylin 3(a)-receptor/CRE-luc cells. Format: cell-based.

For data set [3], the target named is T2, human calcitonin receptor (Homo sapiens, UniProt P30988).
T2 construct: expressed in transfected cells; host or cells: BHK570
T2 sequence (P30988 25-474): T1 sequence (P30988 25-474)
Put plainly: Assay (II)a functional CRE-luciferase assay, human calcitonin receptor. Format: cell-based. The settings on record: Table 7; human calcitonin (CTa) receptor.

Data set [4] in a line: Assay (IV) determination of solubility. The class given is physicochemical. In short, it runs like this:
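Polypeptide in water (~500 nmol/ml) mixed 1:1 with 100 mM glycylglycine (pH 3.0–5.0) or bistrispropane (pH 6.0–8.0) buffers. Held 18 hours at room temperature, then centrifuged. Polypeptide remaining in solution quantified by HPLC.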

pEC50: −log10 of the molar value. Read-outs that look alike come from different tables or passages of the source. Starred links: 1 amine or outer side, 2 acyl side, 3 side chain; linkers in the order of their positions; H or OH if unused. Positions of bridges follow the written chain, without caps; N, C: chain ends. Residues, ends and D or L forms follow the SMILES beside them. *: point of attachment. C20 diacid = O=C(O)CCCCCCCCCCCCCCCCCCC(=O)*; γGlu = O=C(O)[C@H](CCC(=O)[*:2])N[*:1] Where only a bound is given, the exact number is not on record here.

Consider `CC[C@H](C)[C@H](NC(=O)[C@@H]1CCCN1C(=O)CNC(=O)[C@H](Cc1ccccc1)NC(=O)[C@H](CO)NC(=O)[C@H](CO)NC(=O)[C@H](CO)NC(=O)[C@H](CO)NC(=O)[C@H](CCCNC(=N)N)NC(=O)[C@H](Cc1c[nH]cn1)NC(=O)[C@H](CC(C)C)NC(=O)[C@H](Cc1ccccc1)NC(=O)[C@H](CCC(=O)O)NC(=O)[C@H](C)NC(=O)[C@H](CC(C)C)NC(=O)[C@H](CCCNC(=N)N)NC(=O)[C@H](CCC(N)=O)NC(=O)[C@@H](NC(=O)[C@H](C)NC(=O)[C@@H]1CSSC[C@H](NC(=O)[C@H](Cc2c[nH]cn2)NC(=O)CC[C@H](NC(=O)CCCCCCCCCCCCCCCCCCC(=O)O)C(=O)O)C(=O)N[C@@H](CC(N)=O)C(=O)N[C@@H]([C@@H](C)O)C(=O)N[C@@H](C)C(=O)N[C@@H]([C@@H](C)O)C(=O)N1)[C@@H](C)O)C(=O)N[C@@H](CC(C)C)C(=O)N1CCC[C@H]1C(=O)N1CCC[C@H]1C(=O)N[C@H](C(=O)N[C@@H](CC(=O)O)C(=O)N[C@H](C(=O)NCC(=O)N[C@@H](CO)C(=O)N[C@@H](CC(=O)O)C(=O)N[C@H](C(=O)N[C@@H](Cc1ccc(O)cc1)C(N)=O)[C@@H](C)O)C(C)C)[C@@H](C)O` [Example 9, N-alpha-[(S)-4-Carboxy-4-(19-carboxynonadecanoylamino)butyryl]-[His1,Glu14,His17,Arg18,Ser21,Ser22,Asp31,Asp35]-pramlintide] ({C20 diacid-γGlu}-HCNTATCATQRLAEFLHRSSSSFGPILPPTDVGSDTY-NH2; disulfide 2-7 (inferred); C-terminus assumed), for which, in the data set with food intake (0-24 h, 3 nmol/kg), the “Food intake reduction 0-24 h 3 nmol/kg (%)” value turned out to be 39%. For the same molecule, in the data set on food intake (24-48 h, 3 nmol/kg), the “Food intake reduction 24-48 h 3 nmol/kg (%)” value turned out to be 32%. Further, the “ThT pH 4.0 lag time” value in data set [1] (Table 8), in data set [1] (Table 9) and in data set [1] (ThT fibrillation assay) was more than 45 h each time. The “ThT pH 4.0 lag time (h)” value in data set [1] (ThT fibrillation assay) is more than 45 h.

For the molecule `CC[C@H](C)[C@H](NC(=O)[C@@H]1CCCN1C(=O)CNC(=O)[C@H](Cc1ccccc1)NC(=O)[C@H](CC(N)=O)NC(=O)[C@H](CC(N)=O)NC(=O)[C@H](CO)NC(=O)[C@H](CO)NC(=O)[C@H](Cc1c[nH]cn1)NC(=O)[C@H](Cc1c[nH]cn1)NC(=O)[C@H](CC(C)C)NC(=O)[C@H](Cc1ccccc1)NC(=O)[C@H](CCC(=O)O)NC(=O)[C@H](C)NC(=O)[C@H](CC(C)C)NC(=O)[C@H](CCCNC(=N)N)NC(=O)[C@H](CCC(N)=O)NC(=O)[C@@H](NC(=O)[C@H](C)NC(=O)[C@@H]1CSSC[C@H](NC(=O)[C@H](Cc2c[nH]cn2)NC(=O)[C@H](Cc2c[nH]cn2)NC(=O)[C@H](Cc2c[nH]cn2)NC(=O)CC[C@H](NC(=O)CCCCCCCCCCCCCCCCCCC(=O)O)C(=O)O)C(=O)N[C@@H](CC(N)=O)C(=O)N[C@@H]([C@@H](C)O)C(=O)N[C@@H](C)C(=O)N[C@@H]([C@@H](C)O)C(=O)N1)[C@@H](C)O)C(=O)N[C@@H](CC(C)C)C(=O)N1CCC[C@H]1C(=O)N1CCC[C@H]1C(=O)N[C@H](C(=O)N[C@@H](CC(N)=O)C(=O)N[C@H](C(=O)NCC(=O)N[C@@H](CO)C(=O)N[C@@H](CC(N)=O)C(=O)N[C@H](C(=O)N[C@@H](Cc1ccc(O)cc1)C(N)=O)[C@@H](C)O)C(C)C)[C@@H](C)O` [Example 11, N-alpha-[(S)-4-Carboxy-4-(19-carboxynonadecanoylamino)butyryl]-His-His-[His1,Glu14,His17]-pramlintide] ({C20 diacid-γGlu}-HHHCNTATCATQRLAEFLHHSSNNFGPILPPTNVGSNTY-NH2; disulfide 4-9 (inferred)), in the data set with food intake (0-24 h), the “Food intake reduction 0-24 h 30 nmol/kg (%)” value stood at 87%. In addition, the “Food intake reduction 24-48 h 30 nmol/kg (%)” value with food intake (24-48 h) was determined as 92%. Further, in data set [1] (ThT fibrillation assay), the “ThT pH 4.0 lag time (h)” value is 7.4 h.

As for `CC[C@H](C)[C@H](NC(=O)[C@@H]1CCCN1C(=O)CNC(=O)[C@H](Cc1ccccc1)NC(=O)[C@H](CC(N)=O)NC(=O)[C@H](CC(N)=O)NC(=O)[C@H](CO)NC(=O)[C@H](CO)NC(=O)[C@H](Cc1c[nH]cn1)NC(=O)[C@H](CCCNC(=N)N)NC(=O)[C@H](CC(C)C)NC(=O)[C@H](Cc1ccccc1)NC(=O)[C@H](CCC(=O)O)NC(=O)[C@H](C)NC(=O)[C@H](CC(C)C)NC(=O)[C@H](CCCNC(=N)N)NC(=O)[C@H](CCC(N)=O)NC(=O)[C@@H](NC(=O)[C@H](C)NC(=O)[C@@H]1CSSC[C@H](NC(=O)[C@H](Cc2c[nH]cn2)NC(=O)[C@H](Cc2c[nH]cn2)NC(=O)[C@H](Cc2c[nH]cn2)NC(=O)CC[C@H](NC(=O)CCCCCCCCCCCCCCCCCCC(=O)O)C(=O)O)C(=O)N[C@@H](CC(N)=O)C(=O)N[C@@H]([C@@H](C)O)C(=O)N[C@@H](C)C(=O)N[C@@H]([C@@H](C)O)C(=O)N1)[C@@H](C)O)C(=O)N[C@@H](CC(C)C)C(=O)N1CCC[C@H]1C(=O)N1CCC[C@H]1C(=O)N[C@H](C(=O)N[C@@H](CC(N)=O)C(=O)N[C@H](C(=O)NCC(=O)N[C@@H](CO)C(=O)N[C@@H](CC(N)=O)C(=O)N[C@H](C(=O)N[C@@H](Cc1ccc(O)cc1)C(N)=O)[C@@H](C)O)C(C)C)[C@@H](C)O` [Example 12, N-alpha-[(S)-4-Carboxy-4-(19-carboxynonadecanoylamino)butyryl]-His-His-[His1,Glu14,Arg17]-pramlintide] ({C20 diacid-γGlu}-HHHCNTATCATQRLAEFLRHSSNNFGPILPPTNVGSNTY-NH2; disulfide 4-9 (inferred); C-terminus assumed), the “Food intake reduction 0-24 h 30 nmol/kg (%)” value in the data set with food intake (0-24 h) stood at 70%. In the data set with food intake (24-48 h), the “Food intake reduction 24-48 h 30 nmol/kg (%)” value was determined as 45%. For the same molecule, in data set [1] (ThT fibrillation assay), the “ThT pH 4.0 lag time” value is recorded as more than 45 h and the “ThT pH 4.0 lag time (h)” value is recorded as more than 45 h.

Regarding “{C20 diacid-γGlu}-SSGSSGHCNTATCATQRLAEFLHHSSNNFGPILPPTNVGSNTY-NH2 (disulfide 8-13 (inferred); C-terminus assumed) [Example 44, N-alpha-[(S)-4-Carboxy-4-(19-carboxynonadecanoylamino)butyryl]-Ser-Ser-Gly-Ser-Ser-Gly-[His1,Glu14,His17]-pramlintide]”, the pEC50 in data set [2] was 9.51; in data set [3] it was 9.17. Further, the “ThT pH 4.0 lag time (h)” value in data set [1] (ThT fibrillation assay) was 10.6 h. The solubility at 18 h is 21 µM in data set [4] (bistrispropane buffer, pH 6, pH 6.0, read-out: Solubility pH 6.0); 20 µM in data set [4] (bistrispropane buffer, pH 6.5, pH 6.5, read-out: Solubility pH 6.5); 52 µM in data set [4] (bistrispropane buffer, pH 7, pH 7.0, read-out: Solubility pH 7.0); more than 200 µM in data set [4] (bistrispropane buffer, pH 7.5, pH 7.5, read-out: Solubility pH 7.5); more than 200 µM in data set [4] (bistrispropane buffer, pH 8, pH 8.0, read-out: Solubility pH 8.0); more than 200 µM in data set [4] (glycylglycine buffer, pH 3, pH 3.0, read-out: Solubility pH 3.0). Further, the solubility at 18 h in data set [4] (glycylglycine buffer, pH 4, pH 4.0, 18 hours at room temperature, Table 2, read-out: Solubility pH 4.0) is more than 200 µM; in data set [4] (glycylglycine buffer, pH 4, pH 4.0, read-out: Solubility pH 4.0), more than 200 µM; in data set [4] (glycylglycine buffer, pH 5, pH 5.0, read-out: Solubility pH 5.0), more than 200 µM.
